Laboratory results as given in patent US7101915B1, “P-terphenyl compounds” (Shionogi & Co., Ltd., priority 1996, dated 2006).

How the values were obtained:
[1] = test system: IgG1 production of mouse spleen lymphocytes; assay: Suppressive effect on antibody production of mouse spleen lymphocytes: IgG1; format: cell-based, BALB/c (nu/nu) mice; settings: Lymphocyte, 240 h, LPS + IL-4, 10 days
Description: Experiment 6 Suppressive Effect on Antibody Production of Mouse Spleen Lymphocytes 1. Experimental Method 1) Animals
BALB/c (nu/nu) mice were bought from Japan SLC, Inc. (Shizuoka) and 7 weeks old-male mice were used.
RPMI medium (Nissui Pharmaceutical Co., Ltd.) containing 10% fetal bovine serum (HyClone Lab.) inactivated at 56° C. for 30 minutes, penicillin (100 units/ml) and streptomycin (100 μg/ml) (GIBCO) was used for experiments.
Each of the compounds was dissolved in dimethylsulfoxide (Nakaraitesk) at […] and diluted with the medium to adjust a final concentration to 0.1 μg/ml −10 μg/ml.
4) Mouse Spleen Lymphocytes […]
In 96-well cultivating plate (Sumitomo Bakelite Company Limited) mouse spleen lymphocytes were inoculated 2×10^5 cells per well. […] After the cultivation for 10 days, the amount of the antibody in a supernatant was quantified by ELISA method.
7) Quantification of the IgG1, IgG2a and IgM Antibodies
In 96-well plate 50 μl of 10 μg/ml Goat Anti-Mouse Ig (IgM+G+A, H+ L) (Southern Biotechnology, Birmingham) was added and the plate was coated at 4° C. overnight. […] After washing three times with PBST, 100 μl of culture supernatant which was diluted with PBS or 100 μl of an antibody standard solution (Mouse IgG1 standard, Mouse IgG2a standard, Mouse IgM standard, BETHYL Laboratories) of a pre-determined concentration was added and incubated for 1 hour. […]

[2] = test system: inflammatory cells in BAL solution of OVA-sensitized mice; assay: Suppressive effect on bronchial inflammatory cell infiltration by inhalation of antigen (BAL cell counts); format: in vivo, BALB/c mice; settings: 40 mg/kg orally for 9 days, BAL 48 hours after challenge, FIG. 4
Description: Experiment 7 Suppressive Effect on Bronchial Inflammatory Cell Infiltration by Inhalation of Antigen • 1. Experimental Method • 1) Animals
BALB/c mice bought from Japan SLC, Inc. (Shizuoka) (female, 8-11 weeks old) were used for experiments.
2) Sensitizing and Challenge of Antigen
For immunizing, 0.2 ml of a suspension of 2 μg of ovalbumin (OVA; Grade V, SIGMA) and 2 mg of aluminium hydroxide gel in physiological saline was intraperitoneally injected. After 2 weeks, 0.2 ml of a solution of 2 μg of OVA in physiological saline was intraperitoneally injected for a booster. […]
After calculation of the total cell number by coloring of a part of BAL solution with Türk solution, cells in BAL solution were put on a slide glass with cytospin (SHANDON) for May-Grünwald-Giemsa (MERCK) staining. Under a microscope, 500 cells were classified to a macrophage, an eosinophil, a neutrophil and a lymphocyte and a proportion of each type of the cells was calculated. The number of each type of the cells was calculated by a multiplication of its proportion and the total cell number.

Compound: Cc1cc(-c2ccc(OCC=C(Cl)Cl)c(F)c2)c(C)cc1-c1ccc(O)cc1 [Compound I-963]
- melting point: 93 to 94 °C
- IC50 [1]: 0.51 µg/mL
- increasing number of eosinophils by the challenge of antigen [2]: significantly suppresses
- increasing number of neutrophils by the challenge of antigen [2]: significantly suppresses
